Assay results: patent US20160052936A1, “SPIROINDOLINE DERIVATIVES FOR USE AS GONADOTROPIN-RELEASING HORMONE RECEPTOR ANTAGONISTS” (BAYER PHARMA AKTIENGESELLSCHAFT, priority 2013, published 2016)

What was measured:
human GnRH receptor = target: T1, human GnRH receptor (Homo sapiens, UniProt P30968); assay: IP-One HTRF assay with buserelin stimulation; type: cell-based; conditions: CHO cells stably expressing human GnRH receptor; buserelin at EC80; read-out: Potency in IP-One HTRF assay with buserelin (at EC80) stimulation, given as IC50
T1 construct: host or cells: CHO cells stably expressing human GnRH receptor (line established by Prof. Thomas Gudermann)
T1 sequence (P30968 1-328): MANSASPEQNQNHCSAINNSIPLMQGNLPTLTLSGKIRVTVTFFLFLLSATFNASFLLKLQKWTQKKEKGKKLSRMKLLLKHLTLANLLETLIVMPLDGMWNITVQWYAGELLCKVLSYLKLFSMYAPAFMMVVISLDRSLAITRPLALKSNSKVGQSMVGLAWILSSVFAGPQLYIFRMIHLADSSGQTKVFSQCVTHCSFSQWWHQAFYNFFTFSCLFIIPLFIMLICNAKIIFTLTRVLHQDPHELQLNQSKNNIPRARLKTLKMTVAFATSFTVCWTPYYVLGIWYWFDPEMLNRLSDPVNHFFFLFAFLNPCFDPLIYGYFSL
In short: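 CHO cells stably expressing human GnRH receptor, preincubated 1 h with IP1-d2 at 37 °C, treated with compound and EC80 buserelin (LiCl present) for 1 h at 37 °C; IP1 measured by HTRF (665/620 nm ratio) after lysis 1 h at 22 °C. Ten concentrations, 20 μM–1 nM, duplicate; IC50 by 4-parameter fit.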

[1] = system: LH level in ovariectomized rats; assay: LH suppression in the ovariectomized rat; type: in vivo; conditions: for LH suppression: 8 hours after administration
Text: 2.5. LH Suppression in the Ovariectomized Rat
The in vivo potency of GnRH antagonists can be quantified by a LH suppression test in ovariectomized rats. GnRH triggers the LH release from the pituitary mediated by GnRH receptors. Ovarectomy of adult female rats results in elevated levels of circulating LH due to a lack of negative feedback by gonadal steroids. GnRH antagonists suppress the release of LH and accordingly suppression of LH levels can be used to quantify the in vivo potency of GnRH antagonists.
Female adult rats were ovariectomized surgically and they were allowed to recover for at least one week. The animals received 0.5 mg/kg, 3 mg/kg or 10 mg/kg of Example 3.1 by single per oral administration. For comparison reasons a vehicle control and a positive control, 0.1 mg/kg cetrorelix (i.p.), were given once. At 0 min, 15 min, 30 min, 1 hour, 2 hours, 4 hours, 8 hours and 24 hours after compound administration blood was taken from the retro orbital plexus (n=6 per blood withdrawal) for the measurement of serum LH and serum compound levels.
As nonbinding explanatory example of compounds according to the invention FIG. 1 represents the LH level following administration of the compound according to Example 3.1, to ovariectomized adult rats. [Filled circle: Vehicle; Circle, dotted black line: Cetrorelix (0.1 mg/kg); Triangle: Example 3.1 (0.5 mg/kg); Reverse triangle: Example 3.1 (3 mg/kg); Diamond: Example 3.1 (10 mg/kg)]. Values are given as mean+standard deviation (n=6).

SMILES	IC50 (human GnRH receptor) [µM]	LH suppression ([1]; 0.5 mg/kg single per oral administration) [%]	LH suppression ([1]; 3 mg/kg single per oral administration) [%]	LH suppression ([1]; 10 mg/kg single per oral administration) [%]	in vivo GnRH antagonist activity (conclusion) ([1]; per oral administration)
O=C(NCc1ncc(C(F)(F)F)cc1F)c1ccc2c(c1)C1(CCS(=O)(=O)CC1)[C@H](C1CC1)N2S(=O)(=O)c1ccc(F)cc1 (single isomer, unassigned) [Example 1.1]	0.093				
N#Cc1cccc(S(=O)(=O)N2c3ccc(C(=O)NCc4ncc(C(F)(F)F)cc4Cl)cc3C3(CCS(=O)(=O)CC3)[C@@H]2C2CC2)c1 (single isomer, unassigned) [Example 10.1]	0.014				
O=C(NCc1ncc(C(F)(F)F)cc1Cl)c1ccc2c(c1)C1(CCS(=O)(=O)CC1)[C@H](C1CC1)N2S(=O)(=O)c1ccc(F)cc1 [Example 3.1, (2S)—N-{[3-chloro-5-(trifluoromethyl)pyridin-2-yl]methyl}-2-cyclopropyl-1-[(4-fluorophenyl)sulfonyl]-1,2,2′,3′,5′,6′-hexahydrospiro[indole-3,4′-thiopyran]-5-carboxamide 1′,1′-dioxide]	0.021	19	48	90	orally active GnRH antagonist in vivo
